Results as given in patent US10766865B2, “PKM2 modulators and methods for their use” (TOLERO PHARMACEUTICALS, INC., priority 2012, dated 2020).

Experiments:
Assay in all cases: Cell line sensitivity (viability, ATPlite)
Type in all cases: cell-based
Caki-1 = details: Homo sapiens; Caki-1, Kidney; BME media, 72 hours; read-out: Sensitivity to Example 1 (IC50)
Method: (§1) Viability effect of Example 1 against a subset of lung carcinoma cell lines was determined as follows. Cells were seeded at 1500 cells per well in 384-well plates in BME media, and compound was added in 0.1% DMSO 18 hours later. Viability was determined by ATPlite assay after 72 hours. (See FIG. 4C).
(§2) Example 1 was tested against an expanded panel of cell lines according to the above procedure.

RKO = details: Homo sapiens, Colon, BME media, 72 hours, read-out: Sensitivity to Example 1 (IC50)
Method: as §1, §2

AsPC1 = details: Homo sapiens; AsPC1, Pancreatic; BME media, 72 hours; read-out: Sensitivity to Example 1 (IC50)
Method: as §1, §2

NCI-H460 = details: Homo sapiens; NCI-H460, Lung; BME media, 72 hours; read-out: Sensitivity to Example 1 (IC50)
Method: as §1, §2

OVCAR-3 = details: Homo sapiens; OVCAR-3, Ovarian; BME media, 72 hours; read-out: Sensitivity to Example 1 (IC50)
Method: as §1, §2

HepG2 = details: Homo sapiens; HepG2, Liver; BME media, 72 hours; read-out: Sensitivity to Example 1 (IC50)
Method: as §1, §2

Malme3M = details: Homo sapiens, Malme-3M, Melanoma, BME media, 72 hours, read-out: Sensitivity to Example 1 (IC50)
Method: as §1, §2

SW948 = details: Homo sapiens; SW948, Colon; BME media, 72 hours; read-out: Sensitivity to Example 1 (IC50)
Method: as §1, §2

A549 = details: Homo sapiens; A549, Lung; BME media, 72 hours; read-out: Sensitivity to Example 1 (IC50)
Method: as §1, §2

MCF7 = details: Homo sapiens; MCF7, Breast; BME media, 72 hours; read-out: Sensitivity to Example 1 (IC50)
Method: as §1, §2

SW620 = details: Homo sapiens, SW-620; SW620, Colon; BME media, 72 hours; read-out: Sensitivity to Example 1 (IC50)
Method: as §1, §2

Detroit562 = details: Homo sapiens, Detroit 562; Detroit562, Head/Neck; BME media, 72 hours; read-out: Sensitivity to Example 1 (IC50)
Method: as §1, §2

HT1080 = details: Homo sapiens, HT-1080; HT1080, Sarcoma; BME media, 72 hours; read-out: Sensitivity to Example 1 (IC50)
Method: as §1, §2

NCI-H1975 = details: Homo sapiens; NCI-H1975, Lung; BME media, 72 hours; read-out: Sensitivity to Example 1 (IC50)
Method: as §1, §2

SW480 = details: Homo sapiens; SW480, Colon; BME media, 72 hours; read-out: Sensitivity to Example 1 (IC50)
Method: as §1, §2

LNCaP = details: Homo sapiens, Prostate, BME media, 72 hours, read-out: Sensitivity to Example 1 (IC50)
Method: as §1, §2

MiaPaCa2 = details: Homo sapiens, MIA PaCa-2; MiaPaCa2, Pancreatic; BME media, 72 hours; read-out: Sensitivity to Example 1 (IC50)
Method: as §1, §2

HCT116 = details: Homo sapiens, HCT-116; HCT116, Colon; BME media, 72 hours; read-out: Sensitivity to Example 1 (IC50)
Method: as §1, §2

SW48 = details: Homo sapiens; SW48, Colon; BME media, 72 hours; read-out: Sensitivity to Example 1 (IC50)
Method: as §1, §2

Du145 = details: Homo sapiens, DU-145; Du145, Prostate; BME media, 72 hours; read-out: Sensitivity to Example 1 (IC50)
Method: as §1, §2

22RV1 = details: Homo sapiens; 22RV1, Prostate; BME media, 72 hours; read-out: Sensitivity to Example 1 (IC50)
Method: as §1, §2

MDA-MB468 = details: Homo sapiens, MDA-MB-468; MDA-MB468, Breast; BME media, 72 hours; read-out: Sensitivity to Example 1 (IC50)
Method: as §1, §2

MDA-MB453 = details: Homo sapiens, MDA-MB-453; MDA-MB453, Breast; BME media, 72 hours; read-out: Sensitivity to Example 1 (IC50)
Method: as §1, §2

NCI-H647 = details: Homo sapiens; NCI-H647, Lung; BME media, 72 hours; read-out: Sensitivity to Example 1 (IC50)
Method: as §1, §2

PL45 = details: PL45, Pancreatic; BME media, 72 hours; read-out: Sensitivity to Example 1 (IC50)
Method: as §1, §2

IC50 (AsPC1): > 30000 nM
IC50 (NCI-H460): 5000 nM
IC50 (OVCAR-3): 20 nM
IC50 (HepG2): > 30000 nM
IC50 (SW948): > 30000 nM
IC50 (A549): 100 nM
IC50 (MCF7): > 30000 nM
IC50 (SW620): 200 nM
IC50 (HT1080): 50 nM
IC50 (NCI-H1975): 90 nM
IC50 (SW480): 100 nM
IC50 (LNCaP): > 30000 nM
IC50 (MiaPaCa2): 200 nM
IC50 (HCT116): 100 nM
IC50 (SW48): > 30000 nM
IC50 (Du145): > 30000 nM
IC50 (22RV1): > 30000 nM
IC50 (MDA-MB468): > 30000 nM
IC50 (MDA-MB453): > 30000 nM
IC50 (NCI-H647): > 30000 nM
SMILES: O=C(c1cc(C(F)(F)F)n[nH]1)N(Cc1ccc(O)cc1F)CC1CCC1 [Example 1, N-(cyclobutylmethyl)-N-(2-fluoro-4-hydroxybenzyl)-3-(trifluoromethyl)-1H-pyrazole-5-carboxamide]
IC50 (Caki-1): 80 nM
IC50 (RKO): > 30000 nM
IC50 (Malme3M): > 30000 nM
IC50 (Detroit562): 3000 nM
IC50 (PL45): > 30000 nM
